Several values for one entry are separate records, joined by “and”; a condition that tells them apart may be missing. Equal values may be shown once. Inconclusive results and toxic doses are left out.

Among the data in PubChem BioAssay AID330 (DTP/NCI, 2004) are T/C values, retold here.

The test system of the test is P388 leukemia ip, CD2F1 mice, survival T/C. Kind of test: NCI In Vivo Anticancer Drug Screen. Data for tumor model P388 Leukemia (intraperitoneal) in CD2F1 (CDF1) mice. The note with it: endpoint: median survival time, higher = longer survival. In a few lines:
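Mice carrying the transplanted tumor received test compound or vehicle. Survival was recorded in each group, and the value is the treated-group measurement divided by that of the vehicle-treated control group.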

The mark [1] stands for this setting: dose: 50.0 mg/kg/injection, schedule: Q01DX009 (ip), vehicle: saline with Tween-80.
Setting [2] is: dose: 100.0 mg/kg/injection, schedule: Q01DX009 (ip), vehicle: saline with Tween-80.
Setting [3] is: dose: 200.0 mg/kg/injection, schedule: Q01DX009 (ip), vehicle: saline with Tween-80.
Where [4] appears, read: dose: 50.0 mg/kg/injection, schedule: Q01DX005 (ip), vehicle: saline with Tween-80.
Where [5] appears, read: dose: 100.0 mg/kg/injection, schedule: Q01DX005 (ip), vehicle: saline with Tween-80.
[6] abbreviates: dose: 200.0 mg/kg/injection, schedule: Q01DX005 (ip), vehicle: saline with Tween-80.
The mark [7] stands for this setting: dose: 400.0 mg/kg/injection, schedule: Q01DX009 (ip), vehicle: saline with Tween-80.
The mark [8] stands for this setting: dose: 400.0 mg/kg/injection, schedule: Q04DX003 (ip), vehicle: saline with Tween-80.
Setting [9] is: dose: 12.5 mg/kg/injection, schedule: Q01DX009 (ip), vehicle: Klucel (hydroxypropylcellulose) (HPC).
[10] abbreviates: dose: 25.0 mg/kg/injection, schedule: Q01DX009 (ip), vehicle: Klucel (hydroxypropylcellulose) (HPC).
Setting [11] is: dose: 50.0 mg/kg/injection, schedule: Q01DX009 (ip), vehicle: Klucel (hydroxypropylcellulose) (HPC).
The mark [12] stands for this setting: dose: 50.0 mg/kg/injection, schedule: Q01DX009 (ip), vehicle: saline.
[13] abbreviates: dose: 100.0 mg/kg/injection, schedule: Q01DX009 (ip), vehicle: saline.
[14] abbreviates: dose: 200.0 mg/kg/injection, schedule: Q01DX009 (ip), vehicle: saline.
Where [15] appears, read: dose: 60.0 mg/kg/injection, schedule: Q01DX005 (ip), vehicle: saline with Tween-80.
Setting [16] is: dose: 120.0 mg/kg/injection, schedule: Q01DX005 (ip), vehicle: saline with Tween-80.

`COc1c(O)c(O)c2c(c1O)C(=O)c1cc(C)cc(O)c1C2=O`: the T/C (dose: 5.0 mg/kg/injection, schedule: Q01DX009 (ip), vehicle: saline with Tween-80) was 99 % of control; the T/C (dose: 10.0 mg/kg/injection, schedule: Q01DX009 (ip), vehicle: saline with Tween-80) was 103 % of control; the T/C (dose: 20.0 mg/kg/injection, schedule: Q01DX009 (ip), vehicle: saline with Tween-80) is 105 % of control.

As for `CC(C)(C(=O)c1ccccc1)C(=O)c1ccccc1`, the T/C by setting is: under setting [1], 95 % of control; under setting [2], 100 % of control; under setting [3], 95 % of control.

As for `CCCN(CCC)C(C)C(O)c1cccc2ccccc12` (centres undefined), the T/C is, setting by setting: (dose: 50.0 mg/kg/injection, schedule: Q01DX005 (ip), vehicle: saline) 97 % of control; (dose: 100.0 mg/kg/injection, schedule: Q01DX005 (ip), vehicle: saline) 109 % of control.

`O=c1c(Cl)c2cc3c(cc2c2ccccc12)nc1ccccc1n3C1CCCCC1`: the T/C was 88 % of control under setting [1], 94 % of control under setting [2] and 98 % of control under setting [3].

In the case of `O=C1c2ccccc2-c2c1c1ccccc1c(=O)n2CCO`, the T/C was 96 % of control under setting [4], 94 % of control under setting [5] and 105 % of control under setting [6].

For `Cc1ccc(NC(=S)NCCc2ccccn2)cc1C`, the T/C is, setting by setting: (dose: 12.5 mg/kg/injection, schedule: Q01DX009 (ip), vehicle: saline with Tween-80) 94 % of control; (dose: 25.0 mg/kg/injection, schedule: Q01DX009 (ip), vehicle: saline with Tween-80) 94 % of control; under setting [1], 93 % of control; under setting [2], 99 % of control and 92 % of control; under setting [3], 100 % of control; under setting [7], 105 % of control.

On to `Cc1ccc2nc(NC(=O)N(CCCl)N=O)sc2c1`, for which the T/C under setting [8] is 168 % of control.

`CC(C)(C)C1=NC=CNC(C(F)(F)F)=C1`: the T/C is, setting by setting: under setting [9], 94 % of control; under setting [10], 100 % of control; under setting [11], 94 % of control.

As to `CCCCC(C)C(=O)/C=C/c1ccccc1` (centres undefined), the T/C reads like this: under setting [1], 107 % of control and 120 % of control; under setting [2], 108 % of control and 118 % of control; under setting [3], 120 % of control; under setting [7], 117 % of control.

As to `CCCCC1(CCCCCCCCCO)OCCO1`, the T/C is, setting by setting: (dose: 100.0 mg/kg/injection, schedule: Q04DX002 (ip), vehicle: Klucel (hydroxypropylcellulose) (HPC)) 101 % of control; (dose: 200.0 mg/kg/injection, schedule: Q04DX002 (ip), vehicle: Klucel (hydroxypropylcellulose) (HPC)) 99 % of control; (dose: 400.0 mg/kg/injection, schedule: Q04DX002 (ip), vehicle: Klucel (hydroxypropylcellulose) (HPC)) 100 % of control.

As to `COC(=O)c1nc(=S)[nH]c(C(=O)OC)c1C(=O)/C=C/c1ccccc1`, the T/C runs as follows: (dose: 60.0 mg/kg/injection, schedule: Q01DX005 (ip), vehicle: saline + Tween-80 + alcohol) 104 % of control; (dose: 120.0 mg/kg/injection, schedule: Q01DX005 (ip), vehicle: saline + Tween-80 + alcohol) 100 % of control.

Turning to `O=C1CCNC(=O)N1OS(=O)(=O)c1ccccc1`, the T/C under setting [11] was 86 % of control.

Regarding `O=C1C2=C(Nc3ccccc3N2)OC1c1ccc(Cl)cc1` (centres undefined), the T/C was 103 % of control (dose: 7.5 mg/kg/injection, schedule: Q01DX005 (ip), vehicle: Klucel (hydroxypropylcellulose) (HPC)); 101 % of control (dose: 15.0 mg/kg/injection, schedule: Q01DX005 (ip), vehicle: Klucel (hydroxypropylcellulose) (HPC)); 101 % of control (dose: 30.0 mg/kg/injection, schedule: Q01DX005 (ip), vehicle: Klucel (hydroxypropylcellulose) (HPC)).

Take `[O-][N+](O)=C1c2ccccc2-c2ccccc21`: the T/C is 100 % of control (dose: 100.0 mg/kg/injection, schedule: Q04DX003 (ip), vehicle: saline); 103 % of control (dose: 200.0 mg/kg/injection, schedule: Q04DX003 (ip), vehicle: saline); 102 % of control (dose: 400.0 mg/kg/injection, schedule: Q04DX003 (ip), vehicle: saline).

As to `COP1(OC)(OC)OC(C)=C(C)O1`, the T/C runs as follows: under setting [12], 86 % of control; under setting [13], 94 % of control; under setting [14], 86 % of control.

On to `N#CCCCCCCCCCCCC1C=CCC1` (centres undefined), for which the T/C (dose: 100.0 mg/kg/injection, schedule: Q01DX001 (ip), vehicle: saline) was 100 % of control; the T/C (dose: 200.0 mg/kg/injection, schedule: Q01DX001 (ip), vehicle: saline) was 98 % of control; the T/C (dose: 400.0 mg/kg/injection, schedule: Q01DX001 (ip), vehicle: saline) was 100 % of control.

With `C1=[N+]2N=C(SCc3ccccc3)S[B-]2([C+]2CCCCC2)Oc2ccccc21` (centres undefined), the T/C reads like this: under setting [4], 91 % of control; under setting [5], 94 % of control; under setting [6], 91 % of control.

Regarding `Cc1cccc(/C=N/Nc2ccc3ccccc3n2)n1`, the T/C was 102 % of control (dose: 6.25 mg/kg/injection, schedule: Q01DX005 (ip), vehicle: Klucel (hydroxypropylcellulose) (HPC)); 95 % of control (dose: 12.5 mg/kg/injection, schedule: Q01DX005 (ip), vehicle: Klucel (hydroxypropylcellulose) (HPC)); 96 % of control (dose: 25.0 mg/kg/injection, schedule: Q01DX005 (ip), vehicle: Klucel (hydroxypropylcellulose) (HPC)).

For `C[C@@H]1CCC2=C(CO)C(=O)O[C@@]23CC(C)(C)[C@H]2O[C@]123`, the T/C is 98 % of control (dose: 2.25 mg/kg/injection, schedule: Q01DX005 (ip), vehicle: Klucel (hydroxypropylcellulose) (HPC)); 97 % of control (dose: 4.5 mg/kg/injection, schedule: Q01DX005 (ip), vehicle: Klucel (hydroxypropylcellulose) (HPC)); 98 % of control (dose: 9.0 mg/kg/injection, schedule: Q01DX005 (ip), vehicle: Klucel (hydroxypropylcellulose) (HPC)); 100 % of control (dose: 18.0 mg/kg/injection, schedule: Q01DX005 (ip), vehicle: Klucel (hydroxypropylcellulose) (HPC)); 103 % of control (dose: 36.0 mg/kg/injection, schedule: Q01DX005 (ip), vehicle: Klucel (hydroxypropylcellulose) (HPC)).

For `Cc1ccnc(NC(=O)Nc2cc(F)ccc2F)c1`, the T/C is 87 % of control (dose: 30.0 mg/kg/injection, schedule: Q01DX005 (ip), vehicle: saline with Tween-80); 87 % of control and 89 % of control under setting [15]; 101 % of control under setting [16]; 87 % of control (dose: 240.0 mg/kg/injection, schedule: Q01DX005 (ip), vehicle: saline with Tween-80).

Consider `O=c1[nH]ncn1-c1ccccc1`, for which the T/C by setting is: under setting [9], 100 % of control; under setting [10], 109 % of control; under setting [11], 98 % of control; (dose: 100.0 mg/kg/injection, schedule: Q01DX009 (ip), vehicle: Klucel (hydroxypropylcellulose) (HPC)) 106 % of control.

For the molecule `CCCCCCCCCCCCCCCCS(=O)(=O)N/N=C(/c1ccc(OC)c(OC)c1)N1CCCCC1`, the T/C by setting is: (dose: 50.0 mg/kg/injection, schedule: Q01DX009 (ip), vehicle: other) 102 % of control; (dose: 100.0 mg/kg/injection, schedule: Q01DX009 (ip), vehicle: other) 91 % of control; (dose: 200.0 mg/kg/injection, schedule: Q01DX009 (ip), vehicle: other) 93 % of control.

Take `O=CNc1ccn[nH]1`: the T/C was 106 % of control under setting [12], 101 % of control under setting [13] and 100 % of control under setting [14].

`CC1(C)C(=O)c2cc(Cl)ccc2C1(C)C`: the T/C was 103 % of control (dose: 50.0 mg/kg/injection, schedule: Q01DX005 (ip), vehicle: Klucel (hydroxypropylcellulose) (HPC)); 102 % of control (dose: 100.0 mg/kg/injection, schedule: Q01DX005 (ip), vehicle: Klucel (hydroxypropylcellulose) (HPC)); 97 % of control (dose: 200.0 mg/kg/injection, schedule: Q01DX005 (ip), vehicle: Klucel (hydroxypropylcellulose) (HPC)).

On to `N#CC(c1ccccc1)c1ccc2ccccc2n1` (centres undefined), for which the T/C runs as follows: under setting [15], 92 % of control; under setting [16], 86 % of control.

`C=CCC(CC1CC2CCCCN2O1)OCc1ccccc1` (centres undefined): the T/C is, setting by setting: (dose: 100.0 mg/kg/injection, schedule: Q04DX003 (ip), vehicle: saline with Tween-80) 101 % of control; (dose: 200.0 mg/kg/injection, schedule: Q04DX003 (ip), vehicle: saline with Tween-80) 105 % of control; under setting [8], 104 % of control.
